Laboratory results: paper PMC7460887, “Capsaicin-Cyclodextrin Complex Enhances Mepivacaine Targeting and Improves Local Anesthesia in Inflamed Tissues” (International Journal of Molecular Sciences, 2020)
In brackets after ≈: the same amount, converted by molar mass. Where a name gives a salt, the structure may show the parent alone. Read-outs that look alike come from different tables or passages of the source.

What was measured:
[1] = tested on: carrageenan-inflamed mice paw; test: Analgesia in inflamed tissue, carrageenan-induced hyperalgesia, mechanical allodynia in mice hind paw; assay type: in vivo, Male Swiss mice; conditions: 2% solution, subplantar injection, 4 h after carrageenan
Experimental: The antinociceptive effect of the association between mepivacaine and complexed CAP (HP-β-CD-CAP) was evaluated in vivo. A sample of freeze-dried HP-β-CD-CAP was resuspended in 4 mL of mepivacaine hydrochloride solution (MVC) to final concentrations of 1.6 mM (0.05%) CAP and 2% MVC. MVC solution was previously sterilized by filtration 0.22 μm. (Millipore, Burlington, Massachusetts, USA). Male Swiss mice (30–35 g) were obtained from Centro de Bioterismo, University of Campinas, UNICAMP (CEMIB-UNICAMP, Campinas, São Paulo, Brazil) and housed in standard cages under a 12/12 h of light/dark cycle. All experiments were approved by the institutional animal care and use committee of Unicamp, meaning it follows the Brazilian national guideline, which is in line with the National Institutes of Health guide for the care and use of Laboratory animals (protocol # 4402-1).
The mechanical allodynia was analyzed in mice hind paw by a Dynamic Plantar Aesthesiometer (model 37450, Ugo Basile, Italy). The animals were placed in an elevated cage for 2 h before the test, for setting and training. […] The anesthetic formulations were then applied into the same subplantar region of the right paw of the mice, and the pain threshold was evaluated every 15 min. […] After the mechanical stimulus, the time elapsed until paw withdrawal as well as the applied pressure value were automatically recorded.

[2] = cited from earlier work; for Ks with HP-β-CD (from phase solubility study): LA base form; for solubility increment of CAP: at least 10 times greater HP-β-CD concentrations
[3] = cited from earlier work
[4] = parameters: method as in PMID 19440843; conditions: pure HP-β-CD 15% m/w; cited from earlier work
[5] = DOSY NMR diffusion, complexed fraction and association constant; assay type: physicochemical
Experimental: DOSY is an experiment that separates the signals of a mixture of components according to the size and shape of the molecules. DOSY experiments were conducted with the pulse sequence ledbpgp2s, with a time diffusion of 0.06 s. […] The average acquisition time of the experiment was 40 min. The processing program (Dosy Toolbox) was run with data transformed using fn = 32 K. The diffusion coefficient and standard deviation of each species was given by the arithmetic mean of all coefficients of the same species. DOSY allows determination of the association constant (Ka), between guest molecules and CDs. Ka values are inferred from the complexed fraction (Fcomplexed) of the guest molecule, and both values were calculated accordingly to Equations (4) and (5), where Ddrug is the diffusion coefficient of the free drug, Dcomplex is the diffusion coefficient of the complex, Dcyclodextrin is the diffusion coefficient of free CD, and R is the molar concentration of non-complexed CD [25]:(4) Fcomplexed=[Ddrug−Dcomplex]/[Ddrug−Dciclodextrin] (5) Ka=[Ddrug−Dcomplex]/[Ddrug−Dciclodextrin] × R

[6] = Phase solubility study of CAP with HP-β-CD; assay type: physicochemical
Experimental: The effects of HP-β-CD on the solubility of CAP was investigated according to the phase solubility method described by Higuchi and Connors. In this experiment increasing concentrations of CD (0–10 mM) were added to a saturated CAP solution. The solutions were left under magnetic stirring for 48 h (350 rpm and 25 °C). Aliquots of each vial were centrifuged for 10 min (4100× g) and the supernatant was filtered through 0.45 μm (Millipore, Burlington, Massachusetts, USA) and diluted to determine CAP concentration by UV absorption at 280 nm. The phase solubility diagram was obtained by plotting the solubility of CAP, versus the concentrations of HP-β-CD […]. The apparent stability constant (Ks) were calculated by Equation (1), where S0 is the aqueous molar solubility of the drug, taken from the Y intercept of the plot:(1) Ks=slope/S0(1−slope)
The complexation efficiency (CE) determines the adequate ratio of CDs to ensure maximum solubility of the complexed drug. For the CAP-HP-β-CD complex, CE was calculated from the phase solubility plots, according to Equation (2). The CE values allow drug/CD ratio in the formulation, according to Equation (3):(2) CE=slope/(1−slope) (3) Drug:CD=1/(CE+1)/CE

[7] = In vitro release, Franz-type vertical diffusion cell; assay type: physicochemical; conditions: 37 °C, PBS pH 7.4, n = 3
Experimental: A “Franz-type” vertical diffusion cell system was used to evaluate the in vitro release of CAP, comparing the free (dissolved in 20% ethanolic solution) and complexed drug with HP-β-CD [26]. The diffusion system consists of two compartments: the donor one—containing 1 mL of the sample—and the acceptor compartment, containing 12 mL of buffer (10 mM phosphate buffered saline, pH 7.4) kept at 37 °C, under mild stirring to ensure sink condition. A cellulose membrane (Spectrapore, Los Angeles, 1000 Da molecular exclusion pore) separated the two compartments. Aliquots (200 μL) were withdrawn from the acceptor compartment at fixed intervals (15, 30, […], 60, and 90 min, and every hour for 6 h) and the volume was replaced with fresh medium. CAP was quantified by HPLC, in a Waters Breeze 2 System (Waters, Milford, Massachussets, USA) at 280 nm and 30 °C, using a Luna® C18 (2) reverse phase (25 × 4.6 mm, 5 μm) (Phenomenex, Torrance, California, USA), 30-µL injection volume, phosphoric acid (1:1000 v/v) and acetonitrile (7:3 v:v), at pH 2.4, and 1.0 mL/min flow rate.

[8] = complexation with HP-β-CD, DOSY-NMR

## Cc1cccc(C)c1NC(=O)C1CCCCN1C (centres unmarked) [MVC, mepivacaine hydrochloride]
[1]
  induction of anesthesia in inflamed paw: did not induce anesthesia in mice at any time tested

## Clc1ccccc1C(c1ccccc1)(c1ccccc1)n1ccnc1 [clotrimazole]
[2]
  molecules of HP-β-CD demanded for optimal complexation: 21 molecules

## CCCCN1CCCC[C@H]1C(=O)Nc1c(C)cccc1C [S-bupivacaine]
[3]; [8]
  association constant (Ka): 91 M⁻¹
  complexed fraction (Fcomplexed): 57%

## Cc1cccc(C)c1NC(=O)C1CCCCN1C (centres unmarked) [mepivacaine]
[2]
  Ks with HP-β-CD (from phase solubility study): 38 M⁻¹

## hydroxypropyl-β-cyclodextrin [HP-β-CD]
[2]
  HP-β-CD concentration above which aggregates start: higher than 12 mM
[4]
  collapse temperature (Tc): −9.5 °C
[3]
  diffusion coefficient (D): 2.21 × 10^−10 m^2s^−1
[5]
  diffusion coefficient (D): 2.00 × 10^−10 m^2s^−1

## Clc1ccc(COC(Cn2ccnc2)c2ccc(Cl)cc2Cl)c(Cl)c1 (centres unmarked) [miconazole]
[2]
  molecules of HP-β-CD demanded for optimal complexation: 12 molecules

## COc1cc(CNC(=O)CCCC/C=C/C(C)C)ccc1O [CAP, Capsaicin]
[2]; at 27 °C
  solubility increment of CAP: 160 times
[2]; at 37 °C
  solubility increment of CAP: 147 times
[6]
  improvement of apparent solubility of CAP: up to 20 times
  moles of HP-β-CD required per mole of drug to solubilize (D:CD, Equation (3)): 4.2 mol
[6]; 25 °C, aqueous with cosolvent or surfactant or cyclodextrin, thermodynamic from solid
  solubility at 48 h: 2200 µM (≈ 672 µg/mL)
[3]
  diffusion coefficient (D): 4.81 × 10^−10 m^2s^−1
[7]
  time of CAP release: 5 h
[5]
  diffusion coefficient (D): 4.94 × 10^−10 m^2s^−1

## CCCCN1CCCCC1C(=O)Nc1c(C)cccc1C (centres unmarked) [bupivacaine]
[2]
  Ks with HP-β-CD (from phase solubility study): 95 M⁻¹

## CC(C)(C)c1ccc(C(O)CCCN2CCC(C(O)(c3ccccc3)c3ccccc3)CC2)cc1 (centres unmarked) [terfenadine]
[2]
  molecules of HP-β-CD demanded for optimal complexation: 4 molecules
